The subject of this assay is PPARG. Kind of assay: Gene expression custom microarray, human skin fibroblasts (Example 1): PPARG. It counts as cell-based. Particulars: for fold induction at 10 µM: Skin fibroblast, read-out: PPARG↑ gene expression, fold increase or decrease vs untreated cells. An excerpt:
Cell cultures: A human skin fibroblast cell culture (or cultures) was obtained through the Coriell Cell Repository from the National Institute on Aging Cell Repository (Camden, N.J.), or Promocell GmbH (Heidelberg, Germany). The initial culture was selected from the following cell lines: AG13066, AG11557, AG11796 or GM03651E. The cell lines were derived from donors as follows:
Experimental phase: When the appropriate quantity of cells had been grown, they were detached as described above, but at the final step were seeded into each well of one or more 6 well dishes. Each well received 2 ml of the cell suspension so they were seeded equally. The dishes were returned to the incubator until 85-95% confluency was reached.
It is at this stage that all wells were rinsed in PBS after aspirating the growth media. The compound(s) to be tested were previously mixed into a suitable solvent (e.g., DMSO or ethanol) that can be diluted to the desired concentration of test compound (10 μl) in the culture wells without exceeding maximum solvent concentrations and adversely effecting cell viability, and mixed with basal media. NOTE: Standard maximum levels of solvent are 0.1% for DMSO and 0.5% for ETOH.
Every 2 wells on the 6 well plate served as a biological replicate for the purposes of RNA isolation and genetic expression evaluations making each 6 well dish an n=3 for the test compound(s) contained in the media. Negative control plates (no test compound(s) and only basal media) were also generated. The plates were returned to the incubator for 24 hrs.
At the end of the 24 hr time period, the plates were removed from the incubator, the test media aspirated, and the cells rinsed with PBS. RNA isolation is performed using the BioRad Aurum Total RNA Mini Kit (Hercules, Calif.) per manufacturer's protocol; which is described, in brief, below: • Add 350 μl of lysis buffer to each well. Pipet multiple times to ensure thorough lysis. Add lysed cells to the collection tube. • Add 350 μl of 70% ETOH to the collection tube and mix thoroughly. • Pipet the generated lysate onto the spin column placed in a new 2 ml tube. Centrifuge for 30 sec between 8,000 and 10,000 g. • Place the spin column containing the now bound RNA, in a new 2 ml tube. Add 700 μl of low stringency wash solution to the spin column. Centrifuge for 30 sec between 8,000 and 10,000 g. Discard the flow through and replace spin column. • Add 80 μl of DNase I dilution to the spin column and incubate at room temperature for 15 minutes. • Add 700 μl of high stringency wash solution to the column and centrifuge for 30 sec between 8,000 and 10,000 g. Discard flow through. • Add 700 μl of low stringency wash solution to the column and centrifuge for 60 sec between 8,000 and 10,000 g. Discard flow through. • Centrifuge for 2 minutes to remove residual wash solution. • Transfer spin column to new 1.5 ml collection tube and add 80 μl of elution solution to the column. Allow 1 minute for saturation of the membrane and then centrifuge for 2 minutes to complete the RNA elution. • Quantify the quantity of RNA and store at −20 C° until use (no more than 1 month)
The genes tested were: • Cannabinoid receptor 1 (CB1(CNR1)) • Cannabinoid receptor 2 (CB2 (CNR2)) • Fatty acid amide hydrolase (FAAH) • Monoacylglycerol lipase (MGLL, i.e., MAGL) • Peroxisome proliferator-activated receptor gamma (PPARG) • Nuclear factor kappa-light-chain-enhancer of activated B cells (NFκβ) • Interleukin 1 Alpha (IL1alpha) • Cyclooxygenase 1 (PTGS1, i.e., COX1) • Transient receptor potential cation channel subfamily A member 1 (TRPA1) • Transient receptor potential cation channel subfamily V member 1 (TRPV1) • Transient receptor potential cation channel subfamily M member 8 (TRPM8) • Hemoglobin Subunit Beta (HBB) REFERENCE GENE • Ribosomal Protein L13a (RPL13A) REFERENCE GENE

[1] abbreviates: human skin fibroblasts, 10 uM, 24 hr.

Where two headings read alike, the source gives them in different places.

For `C=C(C)[C@@H]1CCC(C)=C[C@H]1c1c(O)cc(CCCCC)cc1O` [CBD, cannabidiol, reference compound], the fold induction at 10 µM (Homo sapiens, 24 h) amounted to 8.1.
On to `CCCCCCCCCCCCCCCC(=O)NCCO` [N-palmitoylethanolamide], for which the “PPARG↑ gene expression, fold increase or decrease vs untreated cells” value under setting [1] is reported as 2.6 fold.
For the molecule `CC(C)[C@]12O[C@H]1[C@@H]1O[C@]13[C@]1(O[C@H]1C[C@H]1C4=C(CC[C@@]13C)C(=O)OC4)[C@@H]2O` [Triptolide], under setting [1], the fold induction at 10 µM turned out to be 1.1.

The values are drawn from patent US20220202739A1, “ENDOCANNABINOID MIMETIC AND ANTI-INFLAMMATORY COMPOUND CONTAINING COMPOSITIONS, METHODS OF PREPARATION AND USES THEREOF” (priority 2019, published 2022).
